Measured values from article doi:10.1101/2025.03.13.643086, “Granzyme-targeting quenched activity-based probes for assessing tumor response to immunotherapy” (bioRxiv, 2025).
Values belong to the molecule of their own block, whether it stands above or below them. Non-standard residues stand in square brackets, D forms with d. Residues, ends and D or L forms follow the SMILES beside them. *: point of attachment. Abu(4-SO3H) = N[C@@H](CCS(=O)(=O)O)C(=O)O; ACC = NC(=O)Cc1cc(=O)oc2cc(N*)ccc12; Cya = N[C@@H](CS(=O)(=O)O)C(=O)O

Assays:
[1] = biological target: recombinant human active GzmB (Homo sapiens, UniProt P10144); experiment: Enzyme cleavage assay / Michaelis-Menten kinetics of fluorogenic substrates with GzmB; assay type: biochemical; conditions: 10 nM GzmB
Procedure: (§1) Figure 1. Isosteric substitution of carboxylic acid at P1 with sulfonic acid enhances selectivity for GzmB over Casp-8. (A) Chemical structures of tetrapeptide fluorogenic substrates 1-4. (B) Enzyme cleavage assay. 100 μM of each substrate was incubated with either recombinant human active GzmB (10 nM) or Casp-8 (5 nM) and fluorescence was measured at Ex/Em: 380/460 nm for 1 h. The initial velocity (V0) of each substrate was normalized to that of the control substrate Ac-IEPD-ACC (1). […] (C) Kinetic measurement. The Michaelis-Menten plot and kinetic parameters were generated with varying concentrations of each substrate 1 and 2 incubated with recombinant human active GzmB (10 nM) and Casp-8 (5 nM). […] (D) Chemical structures of inhibitors 5-7. (E) GzmB inhibition. Recombinant human active GzmB (2 U/μL) was incubated with varying concentrations of each inhibitor and the residual activity of GzmB was measured by the cleavage of Ac-IEPD-AMC fluorogenic substrate and normalized to DMSO control.
(§2) All kinetic experiments were performed on a spectrofluorometer (Biotek cytation5 or Synergy|Mx microplate reader) and analyzed using Microsoft Excel and GraphPad Prism. […]
(v/v) Tween-20, pH 7.5. Assay buffers were prepared at room temperature while the kinetic experiments were performed at 37 °C. Data are presented as the mean with standard deviation (at least two independent experiments). For kinetic experiments, pro-GzmB (0.22 mg/mL) was activated with mouse cathepsin C (22 µg/mL in 50 mM MES, 50 mM NaCl, pH 5.5) and diluted in assay buffer. Alternatively, active GzmB at 100 U/µL was purchased from Enzo Life Sciences (#BML-SE238-5000) and diluted in assay buffer. Conditions for individual experiments are […]
(§3) Figure 1B-C: 10 nM of active GzmB or 5 nM of Casp-8 were treated with different substrates (compounds 1-4) and recorded fluorescence (Ex/Em: 380/460 nm) for 1 h at 37 °C. To determine Michaelis-Menten constants, cleavage assays with 10 nM of GzmB or 5 nM of Casp-8 were performed with different concentrations of substrates 1 and 2. […]
(§4) Working concentrations were prepared by further diluting in the assay buffer before use. Mouse pro-GzmB (0.474 mg/mL) was also activated with mCatC (52.14 µg/mL in 50 mM MES, 50 mM NaCl, pH 5.5), diluted in assay buffer and stored as 500 nM aliquots at - 80 °C, which were further diluted in assay buffer to make final working concentrations. In-gel fluorescence images were acquired on a Typhoon FLA9500 instrument while western blot and Coomassie staining images were acquired on an AMHERST ImageQuant 800 instrument.

Casp-8 = Casp-8 (Homo sapiens, UniProt Q14790); experiment: Enzyme cleavage assay / Michaelis-Menten kinetics of fluorogenic substrates with Casp-8; assay type: biochemical; conditions: 100 μM substrate, 5 nM Casp-8, 1 h, V0 normalized to 1
Procedure: as §1, §2
(§5) (v/v) Tween-20, pH 7.5. Assay buffers were prepared at room temperature while the kinetic experiments were performed at 37 °C. Data are presented as the mean with standard deviation (at least two independent experiments). […]
(§6) (#BML-SE238-5000) and diluted in assay buffer. Conditions for individual experiments are […]
as §3
Working concentrations were prepared by further diluting in the assay buffer before use. […] In-gel fluorescence images were acquired on a Typhoon FLA9500 instrument while western blot and Coomassie staining images were acquired on an AMHERST ImageQuant 800 instrument.

[2] = substrate: CC[C@H](C)[C@H](NC(C)=O)C(=O)N[C@@H](CCC(=O)O)C(=O)N1CCC[C@H]1C(=O)N[C@@H](CC(=O)O)C(=O)Nc1ccc2c(CC(N)=O)cc(=O)oc2c1; experiment: as above; assay type: biochemical, human; conditions: other: 5 nM Casp-8, varying substrate concentrations, 37 °C
Procedure: as §1, §2, §5, §6, §3, §4

[3] = substrate: CC[C@H](C)[C@H](NC(C)=O)C(=O)N[C@@H](CCC(=O)O)C(=O)N1CCC[C@H]1C(=O)N[C@@H](CS(=O)(=O)O)C(=O)Nc1ccc2c(CC(N)=O)cc(=O)oc2c1; experiment: as above; assay type: biochemical, human; conditions: other: 5 nM Casp-8, varying substrate concentrations, 37 °C
Procedure: as §1, §2, §5, §6, §3, §4

[4] = 100 μM substrate, 1 h, V0 normalized to 1

Sequence of recombinant human active GzmB (P10144 21-247): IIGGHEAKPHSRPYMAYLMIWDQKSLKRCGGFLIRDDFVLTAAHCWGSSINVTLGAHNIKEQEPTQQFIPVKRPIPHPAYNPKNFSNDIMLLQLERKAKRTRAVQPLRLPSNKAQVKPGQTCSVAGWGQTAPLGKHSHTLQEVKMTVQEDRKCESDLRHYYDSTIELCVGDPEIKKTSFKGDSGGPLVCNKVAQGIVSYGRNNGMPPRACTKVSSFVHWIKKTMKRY

Molecule: CC[C@H](C)[C@H](NC(C)=O)C(=O)N[C@@H](CCC(=O)O)C(=O)N1CCC[C@H]1C(=O)N[C@@H](CS(=O)(=O)O)C(=O)Nc1ccc2c(CC(N)=O)cc(=O)oc2c1 [Compound 2, Ac-IEPCya-ACC] (Ac-IEP[Cya]-{ACC})
- increase in turnover (kcat) for GzmB compared to Ac-IEPD-ACC (1) [1]: 10 fold
- cleavage efficiency by GzmB compared to Ac-IEPD-ACC (1) [1, 4]: 6 fold
- cleavage by Casp-8 compared to Ac-IEPD-ACC (1), in words (Casp-8): cleavage by Casp-8 was reduced

B1: Casp-8 (Homo sapiens) (protein)
chain 1: SESQTLDKVYQMKSKPRGYCLIINNHNFAKAREKVPKLHSIRDRNGTHLDAGALTTTFEELHFEIKPHDDCTVEQIYEILKIYQLMDHSNMDCFICCILSHGDKGIIYGTDGQEAPIYELTSQFTGLKCPSLAGKPKVFFIQACQGDNYQKGIPVETD
chain 2: LSSPQTRYIPDEADFLLGMATVNNCVSYRNPAEGTWYIQSLCQSLRERCPRGDDILTILTEVNYEVSNKDDKKNMGKQMPQPTFTLRKKLVFPSD
- Km [2]: 359.9 µM
- kcat [2]: 0.090 s⁻¹
- kcat/Km [2]: 250 M⁻¹ s⁻¹
- Km [3]: 506.3 µM
- kcat [3]: 0.087 s⁻¹
- kcat/Km [3]: 172 M⁻¹ s⁻¹

Continued, values first:

- cleavage by GzmB compared to Ac-IEPD-ACC (1), in words [1, 4]: reduced cleavage by GzmB
- cleavage by Casp-8 compared to Ac-IEPD-ACC (1), in words (Casp-8): increased cleavage by Casp-8
Molecule: CC[C@H](C)[C@H](NC(C)=O)C(=O)N[C@@H](CCS(=O)(=O)O)C(=O)N1CCC[C@H]1C(=O)N[C@@H](CC(=O)O)C(=O)Nc1ccc2c(CC(N)=O)cc(=O)oc2c1 [Compound 3] (Ac-I[Abu(4-SO3H)]PD-{ACC})

- cleavage by GzmB compared to Ac-IEPD-ACC (1), in words [1, 4]: routed for cleavage by GzmB
- cleavage by Casp-8 compared to Ac-IEPD-ACC (1), in words (Casp-8): decreasing cross-reactivity with Casp-8
Molecule: CC[C@H](C)[C@H](NC(C)=O)C(=O)N[C@@H](CCS(=O)(=O)O)C(=O)N1CCC[C@H]1C(=O)N[C@@H](CS(=O)(=O)O)C(=O)Nc1ccc2c(CC(N)=O)cc(=O)oc2c1 [Compound 4] (Ac-I[Abu(4-SO3H)]P[Cya]-{ACC})
